Patent publication US20200352184A1, “Prevention of Postharvest Physiological Deterioration using Sulfur-Donating Compounds” (Apeel Technology, Inc., priority 2017, published 2020)

Experiment: Saturation concentration in water
Assay type: physicochemical
Settings: standard temperature and pressure stated for sodium thiosulfate
Procedure: For example, at standard temperature and pressure, water can become saturated with sodium thiosulfate at a concentration of about 700 mg/mL. Accordingly, in some embodiments, the concentration of a solution (e.g., an aqueous solution) containing sodium thiosulfate can be about 700 mg/mL. […] Accordingly, in some embodiments, the concentration of the sodium thiosulfate is between about 400 and about 700 mg/mL (e.g., between about 500 and about 700 mg/mL). In some embodiments, the concentration of the sodium thiosulfate salt is about 100, about 200, about 300, about 400, about 500, about 600, or about 700 mg/mL. In some embodiments, the concentration can be lower than 700 mg/mL.
In some embodiments, a metabisulfite solution (e.g., sodium metabisulfite) solution in water can become saturated at about 300 mg/mL. Accordingly, in some embodiments solutions of sodium metabisulfite are used at a concentration of about 300 mg/mL, about 200 mg/mL, or about 100 mg/mL.

| SMILES | concentration at which water becomes saturated |
| --- | --- |
| O=S([O-])S(=O)(=O)[O-].[Na+].[Na+] [sodium metabisulfite] | about 300 mg/mL |
| O.O.O.O.O.O=S([O-])([O-])=S.[Na+].[Na+] [sodium thiosulfate, sodium thiosulfate pentahydrate] | about 700 mg/mL |
